Experimental data as given in patent US9422309B2, “3-O-heteroaryl-ingenol” (LEO LABORATORIES LIMITED, priority 2012, dated 2016).

Key:
Format in all cases: cell-based
[1] = system: Primary human epidermal keratinocytes, HeKa; assay: HeKa cytokine release (IL-8); conditions: 6 h at 37° C., normalised to 1.5×10^−7 M PEP0005, read-out: HeKa cytokine release (IL-8) Rel EC50 range
Description: Primary human epidermal keratinocytes, HeKa, are seeded (10.000 cells/well) in 96-well plates the day before the assay. Test compounds are diluted in DMSO (dimethyl sulfoxide) and further diluted in assay medium and pipetted into wells of 96 well-plates containing HeKa cells. The plates are incubated for 6 h at 37° C. in humidified air with 5% CO2. Plates are centrifuged briefly to spin down cells at 4° C., the supernatant is removed and analysed by Meso Scale Discovery (MSD) 4-spot cytokine assay (Pro-inflammatory II Ultra Sensitive kit, MSD, MD, USA). The MSD assay employs a sandwich immunoassay format where capture antibodies are coated in a patterned array on the bottom of the wells of a 4-Spot-Multi-MSD plate. Standard samples are incubated in the MULTI-SPOT plates as well, and the cytokine (IL-8) binds to its corresponding capture antibody spot. The cytokine level is quantitated on a SECTOR™ Imager using a cytokine-specific Detection Antibody labelled with MSD SULFO-TAG™ reagent.
(§1) Test compound titration curves are fitted to a four-parameter sigmoidal curve after normalizing the effect of the test compound to the effect of the positive control (1.5×10^−7 M PEP0005). Rel EC50 denotes the concentration of test compound producing an effect that is midway between the fitted top and bottom.

[2] = system: PMN's (polymorphonuclear leukocytes); assay: Neutrophil oxidative burst; conditions: Leukocyte, 40 min; 40 min incubation at rt; normalised to 5×10^−7 M PEP0005; read-out: Neutrophil oxidative burst Rel EC50 range
Description: PMN's (polymorphonuclear leukocytes) are isolated and purified from fresh buffy coats by sequential sedimentation, density centrifugation and lysis of contaminating erythrocytes. In brief, buffy coats are incubated with 2% methocel for 30-45 min to differentially sediment red blood cells. The leukocyte-rich supernatant is transferred to lymphoprep tubes to remove mononuclear cells by density centrifugation (400×g, 30 min). The pellet is resuspended and any remaining erythrocytes lysed using 0.2% NaCl for 30 sec before restoring isotonicity by the addition of 1.2% NaCl. This step is repeated until the cell pellet appears relatively free of red blood cells. Cells are resuspended in DPBS (Dulbecco's Phosphate Buffered Saline) (w.o. Ca^2+, Mg^2+) and the concentration adjusted to 1.4×10^6 cells/ml in HBSS (Hanks Balanced Salt solution) (w Ca^2+, Mg^2+) containing 0.1% BSA (Bovine Serum Albumin) and 5 mM glucose just prior to assay initiation. Titrated reference and test compounds are pre-mixed with HE (Hydroethidine) (10 μM final assay concentration) before addition to 96-well plates containing 2.5×10^5 cells. Following 40 min incubation at rt, changes in the respiratory burst is estimated by measuring fluorescence at 579 nm (excitation: 485 nm) using an Envision plate reader.
as §1, with “(5×10^−7” for “(1.5×10^−7”, “bottom. Abs EC50 is the concentration of test compound that provokes a response corresponding to 50% of the maximal effect associated with the positive control (5×10^−7 M PEP0005).” for “bottom.”

HeLa cells = assay: Necrosis assay; conditions: Homo sapiens, 0.5 h, 30 min at 37° C., PrestoBlue, normalised to 4 10^−4 M PEP0005/ingenol mebutate, read-out: HeLa necrosis EC50 range
Description: HeLa cells (ATCC CCL-002) were grown in minimal essential medium (Invitrogen catalog no. 42360) containing 10% fetal bovine serum, 100 IU/ml penicillin and 100 μg/ml streptomycin. 4,000-6,000 cells were seeded into 96-well black ViewPlates-plates, clear bottom, (Perkin Elmer) in 100 μl medium and incubated overnight. Compounds were dissolved and pre-diluted in DMSO in 96-well polypropylene plates (Greiner) in a concentration range of 15 μM to 600 μM. At the time of the experiment cell plates were placed on heating blocks at 37° C., medium was removed and 40 μl fresh, pre-warmed medium was added per well. Cells were incubated for 15 min before addition of compounds. In parallel, 3 μl of compounds were diluted with 197 μl growth medium on a Tecan freedom-EVO pipetting station using 250 μl/s pipetting speed, in order to ensure effective mixing of the highly concentrated compound solutions with the aqueous phase.
These pre-dilution plates were then equilibrated on heating blocks at 37° C. for 10 min. 80 μl pre-diluted compound were transferred manually to the corresponding wells containing HeLa cells yielding compound concentrations of 10 μM to 400 μM. Control conditions were 1% DMSO in growth medium (100% viability) and 400 μM ingenol mebutate in growth medium (0% viability). Plates were incubated on the heating blocks at 37° C. for 30 min. At the end of the incubation 10 μl PrestoBlue reagent (Invitrogen) were added to each well, plates were sealed with black seal, followed by incubation at 37° C. for 10 min with gentle shaking (150 rpm). Subsequently, plates were placed at room temperature for 20-30 min. Plates were read immediately after on an Envision Fluorescence reader (Perkin Elmer) with excitation at 535 nm and emission at 630 nm. Test compound titration curves were fitted to a four-parameter sigmoidal curve after normalizing the effect of the test compound to the effect of the positive control (4 10^−4 M PEP0005/ingenol mebutate). Abs EC50 denotes the concentration of test compound producing 50% effect.

## CC1=C[C@]23C(=O)[C@@H](C=C(CO)[C@@H](O)[C@]2(O)[C@H]1Oc1noc2ccccc12)[C@H]1[C@@H](C[C@H]3C)C1(C)C [Compound 102, 3-O-(1,2-Benzoxazol-3-yl)-ingenol]
[1]
  EC50: < 20 nM
[2]
  EC50: < 20 nM
HeLa cells
  EC50: 150000 to 350000 nM

## COc1ccc2onc(O[C@H]3C(C)=C[C@]45C(=O)[C@@H](C=C(CO)[C@@H](O)[C@]34O)[C@H]3[C@@H](C[C@H]5C)C3(C)C)c2c1 [Compound 130, 3-O-(5-Methoxy-1,2-benzoxazol-3-yl)-ingenol]
[1]
  EC50: < 20 nM
[2]
  EC50: < 20 nM
HeLa cells
  EC50: 150000 to 350000 nM

## CC1=C[C@]23C(=O)[C@@H](C=C(CO)[C@@H](O)[C@]2(O)[C@H]1Oc1cc(C(F)(F)F)ccn1)[C@H]1[C@@H](C[C@H]3C)C1(C)C [Compound 113, 3-O-(4-(Trifluoromethyl)-2-pyridyl)-ingenol]
[1]
  EC50: 20 to 100 nM
[2]
  EC50: 20 to 100 nM
HeLa cells
  EC50: 150000 to 350000 nM

## CC1=C[C@]23C(=O)[C@@H](C=C(CO)[C@@H](O)[C@]2(O)[C@H]1Oc1ncccc1C(F)(F)F)[C@H]1[C@@H](C[C@H]3C)C1(C)C [Compound 118, 3-O-(3-(Trifluoromethyl)-2-pyridyl)-ingenol]
[1]
  EC50: 20 to 100 nM
[2]
  EC50: < 20 nM
HeLa cells
  EC50: < 150000 nM

## CC1=C[C@]23C(=O)[C@@H](C=C(CO)[C@@H](O)[C@]2(O)[C@H]1Oc1nccc2ccsc12)[C@H]1[C@@H](C[C@H]3C)C1(C)C [Compound 123, 3-O-(Thieno[2,3-c]pyridine-7-yl)-ingenol]
[1]
  EC50: < 20 nM
[2]
  EC50: 20 to 100 nM
HeLa cells
  EC50: ≥ 350000 nM

## C=CCc1c(Cl)ncnc1O[C@H]1C(C)=C[C@]23C(=O)[C@@H](C=C(CO)[C@@H](O)[C@]12O)[C@H]1[C@@H](C[C@H]3C)C1(C)C [Compound 104, 3-O-(5-Allyl-6-chloro-pyrimidin-4-yl)-ingenol]
[1]
  EC50: < 20 nM
[2]
  EC50: 20 to 100 nM
HeLa cells
  EC50: < 150000 nM

## CC1=C[C@]23C(=O)[C@@H](C=C(CO)[C@@H](O)[C@]2(O)[C@H]1Oc1ncc(C(F)(F)F)cn1)[C@H]1[C@@H](C[C@H]3C)C1(C)C [Compound 110, 3-O-(5-(Trifluoromethyl)-pyrimidin-2-yl)-ingenol]
[1]
  EC50: ≥ 100 nM
[2]
  EC50: ≥ 100 nM
HeLa cells
  EC50: ≥ 350000 nM

## CC1=C[C@]23C(=O)[C@@H](C=C(CO)[C@@H](O)[C@]2(O)[C@H]1Oc1noc2cccc(F)c12)[C@H]1[C@@H](C[C@H]3C)C1(C)C [Compound 128, 3-O-(4-Fluoro-1,2-benzoxazol-3-yl)-ingenol]
[1]
  EC50: < 20 nM
[2]
  EC50: < 20 nM
HeLa cells
  EC50: 150000 to 350000 nM

## CC1=C[C@]23C(=O)[C@@H](C=C(CO)[C@@H](O)[C@]2(O)[C@H]1Oc1noc2ccc(Cl)cc12)[C@H]1[C@@H](C[C@H]3C)C1(C)C [Compound 131, 3-O-(5-Chloro-1,2-benzoxazol-3-yl)-ingenol]
[1]
  EC50: < 20 nM
[2]
  EC50: < 20 nM
HeLa cells
  EC50: < 150000 nM

## CC1=C[C@]23C(=O)[C@@H](C=C(CO)[C@@H](O)[C@]2(O)[C@H]1Oc1cc(Br)ccn1)[C@H]1[C@@H](C[C@H]3C)C1(C)C [Compound 111, 3-O-(4-Bromo-2-pyridyl)-ingenol]
[1]
  EC50: 20 to 100 nM
[2]
  EC50: 20 to 100 nM
HeLa cells
  EC50: 150000 to 350000 nM

## CC1=C[C@]23C(=O)[C@@H](C=C(CO)[C@@H](O)[C@]2(O)[C@H]1Oc1ncccc1C)[C@H]1[C@@H](C[C@H]3C)C1(C)C [Compound 124, 3-O-(3-Methyl-2-pyridyl)-ingenol]
[1]
  EC50: ≥ 100 nM
[2]
  EC50: ≥ 100 nM
HeLa cells
  EC50: ≥ 350000 nM

## CC1=C[C@]23C(=O)[C@@H](C=C(CO)[C@@H](O)[C@]2(O)[C@H]1Oc1noc(C(C)C)n1)[C@H]1[C@@H](C[C@H]3C)C1(C)C [Compound 133, 3-O-(5-Isopropyl-1,2,4-oxadiazol-3-yl)-ingenol]
[1]
  EC50: 20 to 100 nM
[2]
  EC50: 20 to 100 nM
HeLa cells
  EC50: ≥ 350000 nM
